Assay [1] deals with Staphylococcus epidermidis. The assay is described as follows: Antibiofilm activity against Staphylococcus epidermidis ATCC 12228 assessed as reduction in biofilm thickness. The format is functional, organism-based.
Assay [2] concerns Staphylococcus aureus. The assay is described as follows: Antimicrobial activity against methicillin resistant Staphylococcus aureus ATCC 33591 infected in skin wound mouse model assessed as reduction in skin wound bacterial load at 0.25 to 4 mg/kg measured on day 3 and 7 […]. The format is functional, organism-based. Particulars: dose 0.25-4 mg/kg, time 3-7 day.

Assay [3] deals with Staphylococcus aureus. The assay is described as follows: Induction of resistant development in Staphylococcus aureus ATCC 25923 assessed as fold increase by serial passage assay. The format is functional.

Here are results for 1 compound from ChEMBL document CHEMBL5380773, “Novel Feleucin-K3-Derived Peptides Modified with Sulfono-γ-AA Building Blocks Targeting Pseudomonas aeruginosa and Methicillin-Resistant Staphylococcus aureus Infections” (J Med Chem, 2023).

The source made the active and inactive calls. The calls are words filed in the database; no cut-off is given here. Numbered stars: 1 amine (or outer) side, 2 acyl side, 3 side chain; on linkers, the order of the positions; unused ones are H or OH. Square brackets hold non-standard residues; d marks the D form. Peptide text beside a SMILES is read from it. * marks the point of attachment. X2 = CC(C)C[C@H](N)CN(CC(=O)[*:2])[*:1]; X1 = O=S(=O)(c1ccc(I)cc1)*

As to `CC(C)C[C@H](N)CN(CC(=O)N[C@@H](CCCCN)C(=O)N[C@@H](CC(C)C)C(=O)N[C@@H](CC(C)C)C(=O)N[C@@H](CCCCN)C(=O)N[C@@H](CCCCN)C(=O)N[C@@H](CC(C)C)C(=O)N[C@@H](CC(C)C)C(N)=O)S(=O)(=O)c1ccc(I)cc1` (X1-[X2]KLLKKLL-NH2), the result in assay [1] and in assay [2] was Active. Further, in assay [3], the “fold change (FC)” value turned out to be 2.
